This note sets out measurements from patent EP4737449A1 (Changchun Genescience Pharmaceutical Co., Ltd., priority 2023, dated 2025).

As usually defined, the IC50 is the concentration that gives 50% inhibition.

One assay has as its target T1, p53-Y220C mutant protein (Homo sapiens, UniProt P04637, Y220C).
T1 construct: The recombinant Y220C p53 DBD protein with his-tag
Description: In vitro DNA binding activity assay (TR-FRET). The class given is biochemical. As to conditions: concentration required to increase the binding activity of protein to DNA by 50%. The method in brief: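 SC150, the compound concentration increasing p53-Y220C DNA binding by 50% relative to vehicle, came from background-corrected 665/615 nm TR-FRET ratios. His-tagged DBD and compound were preincubated 60 min at RT before biotin-DNA plus Eu-anti-His/streptavidin-d2 detection overnight in the dark.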
Background: TR-FRET usually uses a lanthanide donor and a delayed reading to cut background.

The next assay deals with NUGC-3 cells. The assay can be described thus: NUGC-3 cell proliferation assay (CTG, 7 days). It is filed as cell-based, human. The settings on record: Homo sapiens, NUGC-3, 168 h. How it is done:
The cells were cultured in strict accordance with ATCC requirements.
Cell culture medium: 1640 culture medium, 10% serum, 1% penicillin + streptomycin.
Culture conditions: 37°C, 95% air, 5% carbon dioxide.
Compounds (20 mM) were subjected to gradient dilution in DMSO: 10 gradients, 3-fold dilution, duplicate wells.
Positive and negative controls (100% dimethyl sulfoxide) were prepared.
The compounds that were gradient diluted with DMSO and positive and negative controls (1st and 2nd step), each 75 nL, were transferred to 384-well cell culture plates by Echo550.
The cells were washed twice with PBS, digested with trypsin, and centrifuged for cell counting.
The experiment can only be carried out when the cell viability is above 90%.
The cells were plated into 384-well cell culture plates, with 200 (NUGC-3) cells and 30 µL of culture medium per well.
The 384-well microplate was placed in a cell culture incubator for 7 days.
30 µL of CTG detection reagent was added to the 384-well microplate.
The 384-well microplate was incubated for 30 min at 37°C, 5% carbon dioxide in the dark.
The reading was performed by a multi-functional microplate reader Envision.
% Inhibition is calculated as follows: % Inhibition = 100−(Signalcmpd−SignalAve_BL)/(SignalAve_VC−SignalAve_BL)*100 [formula] • Signalcmpd: Average signal of the compound in the cell plate • Signalave_vc: Average signal of the negative control in the cell plate • Signalave_BL: Average signal of the blank wells in the cell plate
IC50 was calculated by fitting % inhibition and compound concentration logarithmically to a nonlinear regression (dose response - variable slope) using Graphpad 8.0. Table 2 IC50 of selected compounds in NUGC-3 cell proliferation assay

Where [1] appears, read: NUGC-3 cell proliferation, 7 days, CTG, read-out: IC50.

Where a name gives a salt, the structure may show the parent alone. Read-outs that look alike come from different tables or passages of the source.

In turn, `CN1CC[C@@H](Nc2cccc3c(CC(F)(F)F)c(C#CCNC(=O)c4ccc(N5CCCC5)nc4)nn23)[C@@H](F)C1` [Compound 315, N-[3-(7-{[(3S,4R)-3-fluoro-1-methylpiperidin-4-yl]amino}-3-(2,2,2-trifluoroethyl)pyrazolo[1,5-a]pyridin-2-yl)prop-2-yn-1-yl]-6-(pyrrolidin-1-yl)nicotinamide] displayed an SC150 on p53-Y220C mutant protein of 52 nM. In addition, the half-inhibitory concentration (IC50) in the assay on NUGC-3 cells (setting [1]) was 1240 nM.

As to `CN1CC[C@@H](Nc2cccc3c(CC(F)(F)F)c(C#CCNC(=O)c4cnn(C(C)(C)CO)c4)nn23)[C@@H](F)C1` [Compound 232, N-[3-(7-{[(3S,4R)-3-fluoro-1-methylpiperidin-4-yl]amino}-3-(2,2,2-trifluoroethyl)pyrazolo[1,5-a]pyridin-2-yl)prop-2-yn-1-yl]-1-(1-hydroxy-2-methylprop-2-yl)-1H-pyrazole-4-carboxamide], on p53-Y220C mutant protein, the SC150 is 8 nM. The IC50 in the assay with NUGC-3 cells (setting [1]) amounted to 419 nM.

For the compound `Cc1nc(C(=O)NCC#Cc2nn3c(N[C@@H]4CCN(C)C[C@@H]4F)cccc3c2CC(F)(F)F)cn1C` [Compound 318, N-[3-(7-{[(3S,4R)-3-fluoro-1-methylpiperidin-4-yl]amino}-3-(2,2,2-trifluoroethyl)pyrazolo[1,5-a]pyridin-2-yl)prop-2-yn-1-yl]-1,2-dimethyl-1H-imidazole-4-carboxamide], the SC150 on p53-Y220C mutant protein was found to be 59 nM. Also, the IC50 in the assay with NUGC-3 cells (setting [1]) is 1700 nM.

At p53-Y220C mutant protein, `CCN1CC[C@@H](Nc2cccc3c(CC(F)(F)F)c(C#CCNC(=O)c4cnn(C(C)C)c4N)nn23)[C@@H](F)C1` [Compound 365, 5-amino-N-(3-(7-{[(3S,4R)-1-ethyl-3-fluoropiperidin-4-yl]amino}-3-(2,2,2-trifluoroethyl)pyrazolo[1,5-a]pyridin-2-yl)prop-2-yn-1-yl)-1-isopropyl-1H-pyrazole-4-carboxamide] displayed an SC150 of 5 nM. Also, the IC50 in the assay on NUGC-3 cells (setting [1]) was 127 nM.

For `CN1CC[C@@H](Nc2cccc3c(CC(F)(F)F)c(C#CCNC(=O)c4cn(C)cn4)nn23)[C@@H](F)C1` [Compound 319, N-[3-(7-{[(3S,4R)-3-fluoro-1-methylpiperidin-4-yl]amino}-3-(2,2,2-trifluoroethyl)pyrazolo[1,5-a]pyridin-2-yl)prop-2-yn-1-yl]-1-methyl-1H-imidazole-4-carboxamide], the SC150 on p53-Y220C mutant protein worked out at 41 nM. Also, the half-inhibitory concentration (IC50) in the assay on NUGC-3 cells (setting [1]) worked out at 1370 nM.

`CN1CC[C@@H](Nc2cccc3c(CC(F)(F)F)c(C#CCNC(=O)c4cc(Cl)n(C)c4)nn23)[C@@H](F)C1` [Compound 326, 5-chloro-N-(3-(7-{[(3S,4R)-3-fluoro-1-methylpiperidin-4-yl]amino}-3-(2,2,2-trifluoroethyl)pyrazolo[1,5-a]pyridin-2-yl)prop-2-yn-1-yl)-1-methyl-1H-pyrrole-3-carboxamide]: the SC150 at p53-Y220C mutant protein stood at 28 nM. Also, the IC50 in the assay with NUGC-3 cells (setting [1]) was determined as 1180 nM.

Regarding `CN1CC[C@@H](Nc2cccc3c(CC(F)(F)F)c(C#CCNC(=O)c4ccc(N5CCC5)nc4)nn23)[C@@H](F)C1` [Compound 314, 6-(azetidin-1-yl)-N-[3-(7-{[(3S,4R)-3-fluoro-1-methylpiperidin-4-yl]amino}-3-(2,2,2-trifluoroethyl)pyrazolo[1,5-a]pyridin-2-yl)prop-2-yn-1-yl]-3-nicotinamide], at p53-Y220C mutant protein, the SC150 worked out at 35 nM. In addition, in the assay on NUGC-3 cells (setting [1]), the half-maximal inhibitory concentration (IC50) is 1200 nM.

For `CN1CC[C@@H](Nc2cccc3c(CC(F)(F)F)c(C#CCNC(=O)c4cnn(C(C)(C)C5CC5)c4N)nn23)[C@@H](F)C1` [Compound 290, 5-amino-1-(2-cyclopropylprop-2-yl)-N-[3-(7-{[(3S,4R)-3-fluoro-1-methylpiperidin-4-yl]amino}-3-(2,2,2-trifluoroethyl)pyrazolo[1,5-a]pyridin-2-yl)prop-2-yn-1-yl]-1H-pyrazole-4-carboxamide], at p53-Y220C mutant protein, the SC150 was 11 nM. Besides, in the assay with NUGC-3 cells (setting [1]), the IC50 turned out to be 355 nM.

At p53-Y220C mutant protein, `CN1CC[C@@H](Nc2cccc3c(CC(F)(F)F)c(C#CCNC(=O)c4cnn(CC5CC5)c4N)nn23)[C@@H](F)C1` [Compound 292] gave an SC150 of 8 nM. Also, in the assay on NUGC-3 cells, inhibition was half-maximal at 214 nM (IC50).

In turn, `CN1CC[C@@H](Nc2cccc3c(CC(F)(F)F)c(C#CCNC(=O)c4ccn(C5CC5)c4)nn23)[C@@H](F)C1` [Compound 280, 1-cycloproyl-N-[3-(7-{[(3S,4R)-3-fluoro-1-methylpiperidin-4-yl]amino}-3-(2,2,2-ethyl trifluoroacetate)pyrazolo[1,5-a]pyridin-2-yl)-prop-2-yn-1-yl]-1H-pyrrole-3-carboxamide] had an SC150 at p53-Y220C mutant protein of 16 nM. In the assay with NUGC-3 cells, this compound yielded an IC50 of 1060 nM.

The compound `CN1CC[C@@H](Nc2cccc3c(CC(F)(F)F)c(C#CCNC(=O)c4ccc(N)nc4)nn23)[C@@H](F)C1` [Compound 296, 6-amino-N-[3-(7-{[(3S,4R)-3-fluoro-1-methylpiperidin-4-yl]amino}-3-(2,2,2-trifluoroethyl)pyrazolo[1,5-a]pyridin-2-yl)prop-2-yn-1-yl]nicotinamide] displayed an SC150 on p53-Y220C mutant protein of 21 nM. The IC50 in the assay on NUGC-3 cells (setting [1]) worked out at 1230 nM.

For the compound `CN1CC[C@@H](Nc2cccc3c(CC(F)(F)F)c(C#CCNC(=O)c4ccn(C5(C)CC5)c4)nn23)[C@@H](F)C1` [Compound 313, N-[3-(7-{[(3S,4R)-3-fluoro-1-methylpiperidin-4-yl]amino}-3-(2,2,2-trifluoroethyl)pyrazolo[1,5-a]pyridin-2-yl)prop-2-yn-1-yl]-1-(1-methylcyclopropyl)-1H-pyrrole-3-carboxamide], at p53-Y220C mutant protein, the SC150 was 28 nM. In the assay on NUGC-3 cells (setting [1]), the IC50 was determined as 1370 nM.

`CN1CC[C@@H](Nc2cccc3c(CC(F)(F)F)c(C#CCNC(=O)c4cccnc4)nn23)[C@@H](F)C1` [Compound 074, N-[3-(7-{[(3S,4R)-3-fluoro-1-methylpiperidin-4-yl]amino}-3-(2,2,2-trifluoroethyl)pyrazolo[1,5-a]pyridin-2-yl)prop-2-yn-1-yl]nicotinamide] registered an SC150 at p53-Y220C mutant protein of 51 nM. In addition, the IC50 in the assay on NUGC-3 cells (setting [1]) is 1860 nM.

`CC(C)n1ncc(C(=O)NCC#Cc2nn3c(N[C@@H]4CCN(C)C[C@@H]4F)cccc3c2CC(F)(F)F)c1N` [Compound 306, 5-amino-N-[3-(7-{[(3S,4R)-3-fluoro-1-methylpiperidin-4-yl]amino}-3-(2,2,2-trifluoroethyl)pyrazolo[1,5-a]pyridin-2-yl)prop-2-yn-1-yl]-1-isopropyl-1H-pyrazole-4-carboxamide] yielded an SC150 on p53-Y220C mutant protein of 6 nM. Besides, the IC50 in the assay with NUGC-3 cells (setting [1]) stood at 142 nM.

As to `CCc1ccc(C(=O)NCC#Cc2nn3c(N[C@@H]4CCN(C)C[C@@H]4F)cccc3c2CC(F)(F)F)cn1` [Compound 331, 6-ethyl-N-[3-(7-{[(3S,4R)-3-fluoro-1-methylpiperidin-4-yl]amino}-3-(2,2,2-trifluoroethyl)pyrazolo[1,5-a]pyridin-2-yl)prop-2-yn-1-yl]pyridine-3-carboxamide], at p53-Y220C mutant protein, the SC150 is listed as 36 nM. In the assay on NUGC-3 cells (setting [1]), the IC50 was found to be 1720 nM.

Turning to `CC(C)n1cnc(C(=O)NCC#Cc2nn3c(N[C@@H]4CCN(C)C[C@@H]4F)cccc3c2CC(F)(F)F)c1` [Compound 320, N-[3-(7-{[(3S,4R)-3-fluoro-1-methylpiperidin-4-yl]amino}-3-(2,2,2-trifluoroethyl)pyrazolo[1,5-a]pyridin-2-yl)prop-2-yn-1-yl]-1-isopropyl-1H-imidazole-4-carboxamide], at p53-Y220C mutant protein, the SC150 was 28 nM. For the same compound, the IC50 with NUGC-3 cells (setting [1]) is 1560 nM.

In the case of `CN1CC[C@@H](Nc2cccc3c(CC(F)(F)F)c(C#CCNC(=O)c4cc(C#N)n(C)c4)nn23)[C@@H](F)C1` [Compound 271, 5-cyano-N-[3-(7-{[(3S,4R)-3-fluoro-1-methylpiperidin-4-yl]amino}-3-(2,2,2-trifluoroethyl)pyrazolo[1,5-a]pyridin-2-yl)prop-2-yn-1-yl]-1-methyl-1H-pyrrole-3-carboxamide], the SC150 on p53-Y220C mutant protein worked out at 23 nM. Besides, in the assay with NUGC-3 cells (setting [1]), the concentration for half-maximal inhibition (IC50) was 936 nM.

On p53-Y220C mutant protein, `CN1CC[C@@H](Nc2cccc3c(CC(F)(F)F)c(C#CCNC(=O)C4CC4)nn23)[C@@H](F)C1` [Compound 135, N-[3-(7-{[(3S,4R)-3-fluoro-1-methylpiperidin-4-yl]amino}-3-(2,2,2-trifluoroethyl)pyrazolo[1,5-a]pyridin-2-yl)prop-2-yn-1-yl]cycloproplycarboxamide] displayed an SC150 of 22 nM. Besides, in the assay on NUGC-3 cells, the IC50 turned out to be 1670 nM.

Consider `CN1CC[C@@H](Nc2cccc3c(CC(F)(F)F)c(C#CCNC(=O)c4cn(C(C)(C)C)cn4)nn23)[C@@H](F)C1` [Compound 082, 1-tert-butyl-N-[3-(7-{[(3S,4R)-3-fluoro-1-methylpiperidin-4-yl]amino}-3-(2,2,2-trifluoroethyl)pyrazolo[1,5-a]pyridin-2-yl)prop-2-yn-1-yl]-1H-imidazole-4-carboxamide], for which the SC150 at p53-Y220C mutant protein was 20 nM. In addition, the IC50 in the assay on NUGC-3 cells (setting [1]) amounted to 1090 nM.
